Measurements from ChEMBL document CHEMBL5236615, “Discovery of Novel N-Heterocyclic-Fused Deoxypodophyllotoxin Analogues as Tubulin Polymerization Inhibitors Targeting the Colchicine-Binding Site for Cancer Treatment” (J Med Chem, 2022).
In brackets after ≈: the same amount, converted by molar mass. Activity calls are given as the source filed them. The rule behind the calls is not given here.

Experiments:
HT-29 = experiment: Antiproliferative activity against human HT-29 cells measured after 72 hrs by MTT assay; assay type: functional, cell-based; details: HT-29, 72 h
HCT-116 = experiment: Antiproliferative activity against human HCT-116 cells measured after 72 hrs by MTT assay; assay type: functional, cell-based; details: HCT-116, 72 h
[1] = Metabolic stability in human liver microsomes assessed as half life at 1 uM by LC/MS analysis; assay type: ADME, Microsome
[2] = Metabolic stability in human liver microsomes assessed as intrinsic clearance at 1 uM by LC/MS analysis; assay type: ADME, Microsome; details: read-out: CLH
Tubulin [3] = target: T1, Tubulin (Sus scrofa, UniProt P02554+P02550); experiment: Inhibition of porcine brain tubulin assessed as changes in the fluorescence intensity measured for 60 mins by cell free tubulin polymerization assay
Tubulin (Homo sapiens) [4] = target: T2, Tubulin (Homo sapiens) (UniProt P68371+Q9H4B7+P0DPH7+P68366+Q13509+Q71U36+P04350+Q3ZCM7+P07437+P68363+Q9BQE3+Q6PEY2+Q13885+Q9BVA1+Q9BUF5); experiment: Inhibition of [3H]colchicine binding to tubulin (unknown origin) at 1 uM by competition scintillation proximity assay relative to control; assay type: protein-complex assay
Tubulin (Homo sapiens) [5] = target: T2, Tubulin (Homo sapiens); experiment: Inhibition of [3H]colchicine binding to tubulin (unknown origin) at 5 uM by competition scintillation proximity assay relative to control; assay type: protein-complex assay
[6] = Aqueous solubility in pH 7.4 PBS buffer by HPLC-UV analysis; assay type: physicochemical
Tubulin [7] = target: T1, Tubulin; experiment: Binding affinity to porcine brain tubulin assessed as changes in the fluorescence incubated for 10 mins tryptophan-based binding assay
MCF7 [8] = experiment: Induction of cell cycle arrest in human MCF7 cells assessed as accumulation of cells at G2/M phase at 5 nM measured after 24 hrs by flow cytometry relative to control; assay type: functional
MCF7 [9] = experiment: Induction of cell cycle arrest in human MCF7 cells assessed as accumulation of cells at G2/M phase at 10 nM measured after 24 hrs by flow cytometry relative to control; assay type: functional
MCF7 [10] = experiment: Induction of cell cycle arrest in human MCF7 cells assessed as cdc25c activation at 5 to 25 nM incubated for 24 hrs by Western blotting analysis; assay type: functional, cell-based; details: dose 5-25 nM
MCF7 [11] = experiment: Induction of cell cycle arrest in human MCF7 cells assessed as arrest in G2/M phase by measuring accumulation of cyclin B1 at 5 to 25 nM incubated for 24 hrs by Western blotting analysis; assay type: functional, cell-based; details: dose 5-25 nM
MCF7 [12] = experiment: Induction of cell cycle arrest in human MCF7 cells assessed as arrest in G2/M phase by measuring accumulation of CDK7 at 5 to 25 nM incubated for 24 hrs by Western blotting analysis; assay type: functional, cell-based; details: dose 5-25 nM
MCF7 [13] = experiment: Induction of cell cycle arrest in human MCF7 cells assessed as arrest in G2/M phase by measuring accumulation of p21 at 5 to 25 nM incubated for 24 hrs by Western blotting analysis; assay type: functional, cell-based; details: dose 5-25 nM
MCF7 [14] = experiment: Induction of cell cycle arrest in human MCF7 cells assessed as mitosis by measuring accumulation of histone H3 ser10 phosphorylation incubated for 24 hrs by Western blotting analysis; assay type: functional, cell-based; details: dose 5-25 nM
MCF7 [15] = experiment: Induction of apoptosis in human MCF7 cells assessed as upregulation of BaX protein expression at 5 to 20 nM measured after 24 hrs by Western blot analysis; assay type: functional, cell-based; details: dose 5-20 nM
MCF7 [16] = experiment: Induction of apoptosis in human MCF7 cells assessed as upregulation of p-Bim L protein expression at 5 to 20 nM measured after 24 hrs by Western blot analysis; assay type: functional, cell-based; details: dose 5-20 nM
MCF7 [17] = experiment: Induction of apoptosis in human MCF7 cells assessed as upregulation of cleaved Caspase 9 at 5 to 20 nM measured after 24 hrs by Western blot analysis; assay type: functional, cell-based; details: dose 5-20 nM
MCF7 [18] = experiment: Induction of mitochondria transmembrane potential loss in human MCF7 cells measured after 12 hrs by JC1 dye based assay; assay type: functional; details: dose 5-20 nM
MCF7 [19] = experiment: Induction of ROS generation in human MCF7 cells assessed as increase in intracellular ROS level measured after 12 hrs by DCFH-DA staining based assay; assay type: functional, cell-based; details: dose 5-20 nM
HUVEC = experiment: Inhibition of angiogenesis in HUVEC cells assessed as broken tubular network at 5 nM after 6 hrs by phase contrast microscopy; assay type: functional, cell-based; details: Homo sapiens
A549 = experiment: Antimigratory activity against human A549 cells assessed as inhibition of cell migration measured after 24 hrs by crystal violet staining based transwell migration assay; assay type: functional; details: dose 1.25-5 nM
[20] = Antiproliferative activity against paclitaxel-resistant human MCF7/TxR cells measured after 72 hrs by MTT assay; assay type: functional, cell-based
[21] = Antiproliferative activity against paclitaxel-resistant human A549/TxR cells measured after 72 hrs by MTT assay; assay type: functional, cell-based
A549/TxR = experiment: Inhibition of colony formation of paclitaxel-resistant human A549/TxR cells at 20 nM measured after 24 hrs by crystal violet based assay; assay type: functional, cell-based
[22] = target: ATP-dependent translocase ABCB1 (Homo sapiens, UniProt P08183); experiment: Substrate activity at P-glycoprotein in paclitaxel-resistant human MCF/TxR cells assessed as intracellular Rhodamine-123 content at 10 uM incubated for 12 hrs by confocal microscopy; assay type: cell-based; details: mcf7/txr
ATP-dependent translocase ABCB1, sequence (P08183 whole entry): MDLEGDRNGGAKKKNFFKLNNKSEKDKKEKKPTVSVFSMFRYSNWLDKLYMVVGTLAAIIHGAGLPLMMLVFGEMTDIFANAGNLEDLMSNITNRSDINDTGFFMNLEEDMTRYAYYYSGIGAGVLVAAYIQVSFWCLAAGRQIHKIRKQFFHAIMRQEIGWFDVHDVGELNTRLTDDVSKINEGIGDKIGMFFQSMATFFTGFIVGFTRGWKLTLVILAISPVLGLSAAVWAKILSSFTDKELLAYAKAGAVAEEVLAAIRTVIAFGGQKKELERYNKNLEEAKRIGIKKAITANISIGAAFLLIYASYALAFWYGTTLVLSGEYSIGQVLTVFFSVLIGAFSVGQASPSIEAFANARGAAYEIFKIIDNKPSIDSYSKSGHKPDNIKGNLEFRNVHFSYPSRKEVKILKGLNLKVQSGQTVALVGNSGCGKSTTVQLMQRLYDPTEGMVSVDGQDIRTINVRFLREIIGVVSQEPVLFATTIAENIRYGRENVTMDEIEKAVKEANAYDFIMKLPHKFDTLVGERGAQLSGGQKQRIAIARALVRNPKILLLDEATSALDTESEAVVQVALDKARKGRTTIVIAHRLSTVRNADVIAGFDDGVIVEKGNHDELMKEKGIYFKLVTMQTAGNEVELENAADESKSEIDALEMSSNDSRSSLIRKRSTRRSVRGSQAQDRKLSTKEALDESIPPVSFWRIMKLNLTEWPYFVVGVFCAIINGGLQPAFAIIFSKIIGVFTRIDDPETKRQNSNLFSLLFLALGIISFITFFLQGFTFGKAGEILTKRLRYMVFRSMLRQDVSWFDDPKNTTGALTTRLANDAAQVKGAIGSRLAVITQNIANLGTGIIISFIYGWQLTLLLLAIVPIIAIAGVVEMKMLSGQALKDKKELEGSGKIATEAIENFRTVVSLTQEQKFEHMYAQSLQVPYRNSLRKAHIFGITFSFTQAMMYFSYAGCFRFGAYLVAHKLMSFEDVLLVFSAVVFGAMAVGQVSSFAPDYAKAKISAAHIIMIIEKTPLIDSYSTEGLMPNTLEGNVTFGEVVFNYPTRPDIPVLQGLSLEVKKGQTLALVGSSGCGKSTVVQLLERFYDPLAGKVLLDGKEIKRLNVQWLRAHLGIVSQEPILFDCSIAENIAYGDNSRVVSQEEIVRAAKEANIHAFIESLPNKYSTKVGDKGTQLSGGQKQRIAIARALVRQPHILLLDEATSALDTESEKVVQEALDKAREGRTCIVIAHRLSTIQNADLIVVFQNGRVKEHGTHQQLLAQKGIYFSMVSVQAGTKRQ

MCF7 [23] = experiment: Antitumor activity against human MCF7 cells xenografted in Balb/c mouse assessed as tumor growth inhibition at 5 mg/kg, ip administered for every 2 days for 21 days; assay type: functional; details: MCF7, 504 h, time 21 day, read-out: TGI
MCF7 [24] = experiment: Antitumor activity against human MCF7 cells xenografted in Balb/c mouse assessed as tumor growth inhibition at 10 mg/kg, ip administered for every 2 days for 21 days; assay type: functional; details: MCF7, 504 h, time 21 day, read-out: TGI
MCF7 [25] = experiment: Antitumor activity against human MCF7 cells xenografted in Balb/c mouse assessed as tumor growth inhibition at 20 mg/kg, ip administered for every 2 days for 21 days; assay type: functional; details: MCF7, 504 h, time 21 day, read-out: TGI
[26] = Toxicity in Balb/c mouse xenografted with human MCF7 cells assessed as pathological changes in heart at 5 to 20 mg/kg, ip administered for every 2 days for 21 days by hematoxylin and eosin staining based analysis; assay type: organism-based; details: in vivo, 504 h, dose 5-20 mg/kg, time 21 day
[27] = Toxicity in Balb/c mouse xenografted with human MCF7 cells assessed as pathological changes in spleen at 5 to 20 mg/kg, ip administered for every 2 days for 21 days by hematoxylin and eosin staining based analysis; assay type: organism-based; details: in vivo, 504 h, dose 5-20 mg/kg, time 21 day
[28] = Toxicity in Balb/c mouse xenografted with human MCF7 cells assessed as pathological changes in lung at 5 to 20 mg/kg, ip administered for every 2 days for 21 days by hematoxylin and eosin staining based analysis; assay type: organism-based; details: in vivo, 504 h, dose 5-20 mg/kg, time 21 day
[29] = Toxicity in Balb/c mouse xenografted with human MCF7 cells assessed as pathological changes in kidney at 5 to 20 mg/kg, ip administered for every 2 days for 21 days by hematoxylin and eosin staining based analysis; assay type: organism-based; details: in vivo, 504 h, dose 5-20 mg/kg, time 21 day
MCF7 [30] = experiment: Antitumor activity against human MCF7 cells xenografted in Balb/c mouse assessed as decrease in Ki67-positive tumor cells in tumor at 20 mg/kg, ip administered for every 2 days for 21 days; assay type: functional, organism-based; details: time 2.0 day
[31] = Acute toxicity in ICR mouse; details: in vivo
K562 = experiment: cells; details: Homo sapiens, K562, 72 h
Description: Antiproliferative activity against human K562 cells measured after 72 hrs by MTT assay

MCF7 [32] = experiment: cells; details: Homo sapiens, MCF7, 72 h
Description: Antiproliferative activity against human MCF7 cells measured after 72 hrs by MTT assay

## COc1c(Br)cc([C@@H]2c3cc4c(cc3C[C@H]3C(=O)NC(=O)N23)OCCO4)cc1Br
HT-29
  IC50: 4.4 nM
HCT-116
  IC50: 5.9 nM
[1]
  half-life at 1 µM: 10.4 min
[2]
  CLint scaled at 1 µM: 10 L/h/kg
Tubulin [3]
  IC50: 2310 nM
Tubulin (Homo sapiens) [4]
  inhibition: 69.7%
Tubulin (Homo sapiens) [5]
  inhibition: 84.6%
[6]
  solubility: < 0.5 µg/mL
Tubulin [7]
  Kd: 1700 nM
MCF7 [8]
  Activity: 16%
MCF7 [9]
  Activity: 16%
MCF7 [10]
  Activity: Active
MCF7 [11]
  Activity: Active
MCF7 [12]
  Activity: Active
MCF7 [13]
  Activity: Active
MCF7 [14]
  Activity: Dose-Dependent Effect
MCF7 [15]
  Activity: Active
MCF7 [16]
  Activity: Active
MCF7 [17]
  Activity: Active
MCF7 [18]
  Activity: Dose-Dependent Effect
MCF7 [19]
  Activity: Dose-Dependent Effect
HUVEC
  Activity: Dose-Dependent Effect
A549
  Activity: Dose-Dependent Effect
[20]
  IC50: 5.2 nM
[21]
  IC50: 7.9 nM
A549/TxR
  inhibition: Active
[22]
  Activity: Not Active
MCF7 [23]
  inhibition in vivo at 5 mg/kg: 20.8%
MCF7 [24]
  inhibition in vivo at 10 mg/kg: 73.2%
MCF7 [25]
  inhibition in vivo at 20 mg/kg: 78.9%
[26]
  Activity: Non-Toxic
[27]
  Activity: Non-Toxic
[28]
  Activity: Non-Toxic
[29]
  Activity: Non-Toxic
MCF7 [30]
  Activity: Active
[31]
  LD50: 86.2 mg/kg
K562
  IC50: 5.3 nM
MCF7 [32]
  IC50: 3.5 nM

## COc1c(Cl)cc([C@@H]2c3cc4c(cc3C[C@H]3C(=O)NC(=O)N23)OCCO4)cc1Cl
HT-29
  IC50: 8.3 nM
HCT-116
  IC50: 8.7 nM
[1]
  half-life at 1 µM: 26.1 min
[2]
  CLint scaled at 1 µM: 4 L/h/kg
Tubulin [3]
  IC50: 2520 nM
Tubulin (Homo sapiens) [4]
  inhibition: 71.5%
Tubulin (Homo sapiens) [5]
  inhibition: 88.7%
[6]
  solubility: 2.85 µg/mL (≈ 6.55 µM)
Tubulin [7]
  Kd: 4490 nM
MCF7 [8]
  Activity: 16%
MCF7 [9]
  Activity: 16%
MCF7 [10]
  Activity: Active
MCF7 [11]
  Activity: Active
MCF7 [12]
  Activity: Active
MCF7 [13]
  Activity: Active
MCF7 [14]
  Activity: Dose-Dependent Effect
MCF7 [15]
  Activity: Active
MCF7 [16]
  Activity: Active
MCF7 [17]
  Activity: Active
MCF7 [18]
  Activity: Dose-Dependent Effect
MCF7 [19]
  Activity: Dose-Dependent Effect
HUVEC
  Activity: Dose-Dependent Effect
A549
  Activity: Dose-Dependent Effect
[20]
  IC50: 7.8 nM
[21]
  IC50: 5.2 nM
A549/TxR
  inhibition: Active
[22]
  Activity: Not Active
MCF7 [23]
  inhibition in vivo at 5 mg/kg: 41%
MCF7 [24]
  inhibition in vivo at 10 mg/kg: 85.1%
MCF7 [25]
  inhibition in vivo at 20 mg/kg: 85.1%
[26]
  Activity: Non-Toxic
[27]
  Activity: Non-Toxic
[28]
  Activity: Non-Toxic
[29]
  Activity: Non-Toxic
MCF7 [30]
  Activity: Active
[31]
  LD50: 211 mg/kg
K562
  IC50: 6.3 nM
MCF7 [32]
  IC50: 9.2 nM
